Experimental data published in US20230146675A1, “PYRIMIDO[5,4-d]PYRIMIDINE DERIVATIVES AS ENT INHIBITORS FOR THE TREATMENT OF CANCERS, AND COMBINATION THEREOF WITH ADENOSINE RECEPTOR ANTAGONISTS” (ITEOS BELGIUM SA, priority 2020, published 2023).
Where two headings read alike, the source gives them in different places.

Target: T1, Phosphodiesterase-6 (Bos taurus, UniProt P11541+P23439)
T1 construct: using an enzyme isolated from bovine retinas at Eurofins-Cerep; tissue Eurofins-Cerep; host or cells: bovine retinas
T1 sequence (P11541 2-856 limits assumed): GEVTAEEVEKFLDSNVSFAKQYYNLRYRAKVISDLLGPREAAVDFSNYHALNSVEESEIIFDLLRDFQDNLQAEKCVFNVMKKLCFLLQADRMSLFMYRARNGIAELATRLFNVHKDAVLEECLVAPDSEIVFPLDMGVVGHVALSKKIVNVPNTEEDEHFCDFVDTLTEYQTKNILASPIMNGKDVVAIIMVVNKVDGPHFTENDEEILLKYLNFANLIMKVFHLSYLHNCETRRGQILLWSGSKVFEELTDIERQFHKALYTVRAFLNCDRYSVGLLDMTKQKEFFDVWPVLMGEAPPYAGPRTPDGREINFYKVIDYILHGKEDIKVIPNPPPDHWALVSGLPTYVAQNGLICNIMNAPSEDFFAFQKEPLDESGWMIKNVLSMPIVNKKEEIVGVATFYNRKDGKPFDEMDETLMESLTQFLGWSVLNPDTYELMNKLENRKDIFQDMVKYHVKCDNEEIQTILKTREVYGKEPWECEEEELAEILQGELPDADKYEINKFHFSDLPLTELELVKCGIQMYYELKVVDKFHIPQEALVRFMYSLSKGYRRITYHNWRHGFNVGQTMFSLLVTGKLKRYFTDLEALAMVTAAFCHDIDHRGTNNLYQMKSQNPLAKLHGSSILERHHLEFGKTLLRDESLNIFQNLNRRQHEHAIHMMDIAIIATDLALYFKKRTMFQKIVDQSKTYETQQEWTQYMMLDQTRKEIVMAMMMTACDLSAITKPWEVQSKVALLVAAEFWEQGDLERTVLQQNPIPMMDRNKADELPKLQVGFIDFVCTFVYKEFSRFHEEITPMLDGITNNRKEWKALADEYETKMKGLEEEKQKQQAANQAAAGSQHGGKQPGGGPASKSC
T1 sequence (P23439 2-850 limits assumed): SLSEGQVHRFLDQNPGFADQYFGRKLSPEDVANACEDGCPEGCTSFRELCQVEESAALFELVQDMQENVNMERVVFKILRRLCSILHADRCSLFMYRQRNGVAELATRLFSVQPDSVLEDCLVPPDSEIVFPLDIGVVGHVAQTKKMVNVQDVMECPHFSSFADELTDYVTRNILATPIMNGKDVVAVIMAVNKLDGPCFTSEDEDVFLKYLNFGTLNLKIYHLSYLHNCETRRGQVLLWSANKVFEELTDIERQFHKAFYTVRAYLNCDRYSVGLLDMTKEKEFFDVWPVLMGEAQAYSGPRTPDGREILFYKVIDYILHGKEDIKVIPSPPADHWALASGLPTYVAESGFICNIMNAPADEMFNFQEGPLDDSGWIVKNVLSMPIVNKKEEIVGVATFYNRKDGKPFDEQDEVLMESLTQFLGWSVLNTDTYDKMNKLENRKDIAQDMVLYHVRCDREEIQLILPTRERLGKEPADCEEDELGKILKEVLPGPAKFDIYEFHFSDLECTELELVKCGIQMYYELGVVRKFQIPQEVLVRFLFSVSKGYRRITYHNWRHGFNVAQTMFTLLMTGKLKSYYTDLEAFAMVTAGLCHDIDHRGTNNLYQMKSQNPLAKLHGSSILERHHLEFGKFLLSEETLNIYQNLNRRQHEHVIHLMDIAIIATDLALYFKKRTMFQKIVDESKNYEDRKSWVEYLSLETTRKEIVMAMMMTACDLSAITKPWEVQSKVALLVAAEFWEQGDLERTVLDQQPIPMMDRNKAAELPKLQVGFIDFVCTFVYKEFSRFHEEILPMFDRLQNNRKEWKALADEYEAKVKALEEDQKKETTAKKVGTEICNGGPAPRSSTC
Assay: PDE6 (non-selective) assay
Type: biochemical, bovine
Procedure: The test compound (compound 72), reference compound or water (control) were added to a buffer containing 40 mM Tris/HCl (pH 7.4) and 8 mM MgCl2, 450 nM cAMP and 0.0125 μCi [3H]cAMP. Thereafter, the reaction was initiated by addition of the enzyme (about 1.5 U) and the mixture was incubated for 20 min at 22° C. For basal control measurements, the enzyme was omitted from the reaction mixture. Following incubation SPA beads were added. After 30 min at 22° C. under shaking, the amount of [3H]5′AMP was quantified with a scintillation counter (Topcount, Packard). The results were expressed as a percent inhibition of the control enzyme activity. The standard inhibitory reference compound was Ro 20-1724, which was tested in each experiment at several concentrations to obtain an inhibition curve from which its IC50 value was calculated. • Phosphodiesterase-6 quantified by measuring the formation of 5′GMP from cGMP using an enzyme isolated from bovine retinas at Eurofins-Cerep
The test compound (compound 72), reference compound or water (control) were added to a buffer containing 40 mM Tris/HCl (pH 7.8), 3 mM MgCl2, 1.4 mM DTT, 0.21% BSA, 200 mM NH4Cl, 2 μM cGMP and 0.05 μCi [3H]cGMP. […] After 20 min at 22° C. under shaking, the amount of [3H]5′GMP was quantified with a scintillation counter (Topcount, Packard). The results were expressed as a percent inhibition of the control enzyme activity. […]

IC50 (read-out: PDE6 (non-selective) IC50): 1 to 10 µM | IC50 (read-out: PDE6 IC50): 3.23 µM
SMILES: COCCN(CCOC)c1nc(N2CCN(C)C(=O)C2)c2nc(N(CCOC)CCOC)nc(N3CCC(OC)CC3)c2n1 [Compound 72, 4-(2,6-bis(bis(2-methoxyethyl)amino)-8-(4-methoxypiperidin-1-yl)pyrimido[5,4-d]pyrimidin-4-yl)-1-methylpiperazin-2-one]
